67 compounds from patent US8916565B2, “Pyrrolopyrazine-spirocyclic piperidine amides as modulators of ion channels” (priority 2011, dated 2014) can be followed below.

This test concerns the target human NaV subtype, like NaV 1.7 (Homo sapiens, UniProt Q15858). Kind of test: E-VIPR optical membrane potential assay with electrical stimulation. Format: cell-based. To be noted: active against one or more sodium channels; Table 3 does not name the assay or NaV subtype; read-out: Binned Activity Data (IC50).

For orientation: IC50 means the concentration needed to halve the response being measured.

Chain of human NaV subtype, like NaV 1.7 (Q15858 whole entry): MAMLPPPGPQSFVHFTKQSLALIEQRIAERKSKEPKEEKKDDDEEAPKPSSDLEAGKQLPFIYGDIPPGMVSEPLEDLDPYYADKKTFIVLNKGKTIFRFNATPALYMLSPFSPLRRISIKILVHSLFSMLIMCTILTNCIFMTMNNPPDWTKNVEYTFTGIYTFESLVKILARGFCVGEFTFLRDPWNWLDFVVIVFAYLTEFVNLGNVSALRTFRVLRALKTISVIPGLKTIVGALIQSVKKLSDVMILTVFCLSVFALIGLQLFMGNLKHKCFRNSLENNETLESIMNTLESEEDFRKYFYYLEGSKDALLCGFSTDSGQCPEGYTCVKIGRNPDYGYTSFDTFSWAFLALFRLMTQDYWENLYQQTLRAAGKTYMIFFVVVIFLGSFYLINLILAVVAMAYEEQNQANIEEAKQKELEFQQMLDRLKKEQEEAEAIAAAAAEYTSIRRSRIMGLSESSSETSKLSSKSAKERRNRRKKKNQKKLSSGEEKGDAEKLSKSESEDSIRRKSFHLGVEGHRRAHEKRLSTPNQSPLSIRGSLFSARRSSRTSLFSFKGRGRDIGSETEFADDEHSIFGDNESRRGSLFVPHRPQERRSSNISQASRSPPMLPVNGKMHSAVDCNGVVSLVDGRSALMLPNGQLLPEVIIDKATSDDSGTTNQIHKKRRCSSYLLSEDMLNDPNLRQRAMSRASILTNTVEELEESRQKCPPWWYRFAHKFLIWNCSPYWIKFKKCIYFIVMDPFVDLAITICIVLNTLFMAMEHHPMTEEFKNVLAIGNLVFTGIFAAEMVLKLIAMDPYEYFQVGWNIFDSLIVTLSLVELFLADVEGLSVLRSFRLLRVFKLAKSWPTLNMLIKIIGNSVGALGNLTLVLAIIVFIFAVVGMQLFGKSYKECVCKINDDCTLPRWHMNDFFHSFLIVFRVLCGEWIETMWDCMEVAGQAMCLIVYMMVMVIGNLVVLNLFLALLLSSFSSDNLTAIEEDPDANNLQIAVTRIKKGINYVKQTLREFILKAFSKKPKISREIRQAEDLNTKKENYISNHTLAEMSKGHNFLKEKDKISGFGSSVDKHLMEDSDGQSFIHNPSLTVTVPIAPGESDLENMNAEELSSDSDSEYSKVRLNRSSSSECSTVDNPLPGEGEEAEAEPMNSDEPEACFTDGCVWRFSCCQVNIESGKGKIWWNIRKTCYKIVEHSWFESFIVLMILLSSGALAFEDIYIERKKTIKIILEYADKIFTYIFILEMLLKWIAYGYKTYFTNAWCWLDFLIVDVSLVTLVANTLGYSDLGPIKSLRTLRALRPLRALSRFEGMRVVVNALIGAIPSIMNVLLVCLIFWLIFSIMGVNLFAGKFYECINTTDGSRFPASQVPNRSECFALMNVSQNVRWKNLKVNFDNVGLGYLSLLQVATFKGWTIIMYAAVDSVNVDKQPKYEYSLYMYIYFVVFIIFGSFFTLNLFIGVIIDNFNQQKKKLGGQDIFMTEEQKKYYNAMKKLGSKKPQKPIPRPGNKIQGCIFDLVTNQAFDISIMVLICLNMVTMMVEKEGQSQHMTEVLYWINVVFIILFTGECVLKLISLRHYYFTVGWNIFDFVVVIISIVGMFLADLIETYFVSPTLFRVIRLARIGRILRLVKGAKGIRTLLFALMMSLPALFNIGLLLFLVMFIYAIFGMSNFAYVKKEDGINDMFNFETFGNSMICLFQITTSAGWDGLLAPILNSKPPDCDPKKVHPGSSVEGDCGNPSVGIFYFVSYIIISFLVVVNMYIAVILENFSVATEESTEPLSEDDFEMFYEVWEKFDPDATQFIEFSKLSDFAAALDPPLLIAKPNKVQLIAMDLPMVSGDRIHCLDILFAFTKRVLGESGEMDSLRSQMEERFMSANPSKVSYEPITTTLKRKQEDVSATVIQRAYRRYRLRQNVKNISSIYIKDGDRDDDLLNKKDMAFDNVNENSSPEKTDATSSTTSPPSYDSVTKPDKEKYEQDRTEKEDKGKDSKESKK

`CN1CCn2c(C(=O)C(F)(F)F)ccc2C12CCN(C(=O)c1cc(O)ccc1F)CC2` [Compound 417]: the IC50 was more than 5000 nM.
The figure for `CC(=O)c1ccc2n1CC(C)(C)NC21CCN(C(=O)c2ccc(OC(C)C)c(C)c2)CC1` [Compound 418] is not above 2000 nM; for `CNC(=O)N1CCn2c(C(F)(F)F)ccc2C12CCN(C(=O)c1ccc(OC(C)C)c(Cl)c1)CC2` [Compound 419] it is not above 2000 nM; for `CCOc1ccc(C(=O)N2CCC3(CC2)c2c(Cl)cc(C(F)(F)F)n2CCN3C)cc1C` [Compound 420] it is not above 2000 nM.
For `Cc1cc(C(=O)N2CCC3(CC2)c2cc(C(=O)C(F)(F)F)cn2C(C)(C)CN3C)ccc1C(C)(C)O` [Compound 421] the value was more than 5000 nM.
For the compound `CN1CCn2c(C(F)(F)F)ccc2C12CCN(C(=O)c1cccnc1Oc1ccccc1)CC2` [Compound 422], the IC50 was not above 2000 nM.
`COc1cc(C(=O)N2CCC3(CC2)c2ccc(C(=O)C(F)(F)F)n2CCN3C)ccc1C(C)(C)C` [Compound 423]: the IC50 is not above 2000 nM.
Regarding `Cc1cc(C(=O)N2CCC3(CC2)c2ccc(Cl)n2CCN3C)ccc1-c1ccccc1` [Compound 424], the IC50 was not above 2000 nM.
`CC(=O)c1ccc2n1CCN(C)C21CCN(C(=O)c2ccc(C3CC3)cc2)CC1` [Compound 425]: the IC50 was more than 5000 nM.
For the compound `CCOC(=O)CN1CCn2c(C(F)(F)F)ccc2C12CCN(C(=O)c1ccc(OC(C)C)c(C)c1)CC2` [Compound 426], the IC50 is not above 2000 nM.
Consider `CC1Cn2c(C(F)(F)F)ccc2C2(CCN(C(=O)c3ccc(OC(C)C)cc3F)CC2)N1` (stereo not shown) [Compound 427], for which the half-maximal inhibitory concentration (IC50) was not above 2000 nM.
Take `CCC(=O)N1CCn2c(C(F)(F)F)ccc2C12CCN(C(=O)c1ccc(OC(C)C)c(OC)c1)CC2` [Compound 428]: the 50% inhibitory concentration (IC50) was not above 2000 nM.
Consider `COc1cc(C(=O)N2CC[C@@]3(c4ccc(C(F)(F)F)n4CCN3C)[C@@H](C)C2)ccc1OC(C)C` [Compound 429], for which the half-inhibitory concentration (IC50) lay within 2000 to 5000 nM.
For `Cc1cc(C(=O)N2CCC3(CC2)c2cccn2CCN3C)ccc1OC(C)C` [Compound 430] the value was more than 5000 nM.
For `CC(C)Oc1ccc(C(=O)N2CCC3(CC2)c2c(F)cc(C(F)(F)F)n2CCN3C)cn1` [Compound 431] the value was 2000 to 5000 nM.
Regarding `COc1ccc(C(=O)N2CCC3(CC2)c2ccc(C(=O)C(F)(F)F)n2C[C@@H](C)N3C)cc1C` [Compound 432], the IC50 was 2000 to 5000 nM.
The figure for `Cc1nc(C(=O)N2CCC3(CC2)NC(C)(C)Cn2c(C(=O)C(F)(F)F)ccc23)ccc1OC(C)C` [Compound 433] is not above 2000 nM.
For `COCCOc1ccc(C(=O)N2CCC3(CC2)c2ccc(C(=O)C(F)(F)F)n2CCN3C)cc1` [Compound 434] the value was more than 5000 nM; for `COc1cc(C(=O)N2CCC3(CC2)NCCn2c(C(F)(F)F)ccc23)ccc1OC(C)(C)C` [Compound 435], 2000 to 5000 nM; for `CC(C)Oc1ccc(C(=O)N2CCC3(CC2)c2c(F)cc(C(F)(F)F)n2CCN3C)cc1F` [Compound 436], not above 2000 nM.
On to `Cc1cc(C(=O)N2CCC3(CC2)c2ccc(C(=O)C(F)(F)F)n2C(C)(C)CN3C)ccc1OC(C)C` [Compound 437], for which the IC50 is not above 2000 nM.
The figure for `CC(C)CCOc1ccc(C(=O)N2CCC3(CC2)c2ccc(C(=O)C(F)(F)F)n2CCN3C)nc1` [Compound 438] is not above 2000 nM; for `CC(C)Oc1ccc(C(=O)N2CCC3(CC2)c2ccc(C(=O)C(F)(F)F)n2C[C@H](C)N3C)cc1F` [Compound 439] it is not above 2000 nM; for `COc1cc(C(=O)N2CCC3(CC2)c2ccc(C(F)(F)F)n2CCN3C)ccc1OCCO` [Compound 440] it is more than 5000 nM.
On to `CN1CCn2c(C(F)(F)F)ccc2C12CCN(C(=O)c1ccc(S(=O)(=O)C(C)(C)C)cc1)CC2` [Compound 441], for which the 50% inhibitory concentration (IC50) was not above 2000 nM.
For `CC1(C)Cn2c(C(=O)C(F)(F)F)ccc2C2(CCN(C(=O)c3ccc(S(=O)(=O)NC4CC4)cc3)CC2)N1` [Compound 442] the value was not above 2000 nM; for `COc1cc(C(=O)N2CCC3(CC2)c2ccc(C(F)(F)F)n2CCN3C)ccc1OC(C)C` [Compound 443], not above 2000 nM.
The figure for `CC(C)CCOc1ccc(C(=O)N2CCC3(CC2)c2ccc(C(=O)C(F)(F)F)n2C(C)CN3C)nc1` (stereo not shown) [Compound 444] is not above 2000 nM.
With `CC(C)Oc1ccc(C(=O)N2CCC3(CC2)c2ccc(C(=O)C4(C)CC4)n2CCN3C)c(F)c1` [Compound 445], the half-inhibitory concentration (IC50) is not above 2000 nM.
The figure for `CCOc1ccc(C(=O)N2CCC3(CC2)c2ccc(C(=O)C(F)(F)F)n2CCN3C)cc1F` [Compound 446] is 2000 to 5000 nM.
The figure for `CC(=O)c1ccc2n1CCN(C)C21CCN(C(=O)c2ccc(COCC(F)(F)F)cc2)CC1` [Compound 447] is more than 5000 nM; for `COc1ccc(C(=O)N2CCC3(CC2)c2ccc(C(=O)C4(C)CC4)n2CCN3C)nc1C` [Compound 448] it is not above 2000 nM; for `C[C@H]1Cn2c(C(=O)C(F)(F)F)ccc2C2(CCN(C(=O)c3ccc(COCCC(F)(F)F)cc3)CC2)N1C` [Compound 449] it is not above 2000 nM.
For `Cc1cc(C(=O)N2CCC3(CC2)c2ccc(C(F)(F)F)n2CCN3C)ccc1S(=O)(=O)NC(C)C` [Compound 450] the value was not above 2000 nM; for `CC(C)(O)c1ccc(C(=O)N2CCC3(CC2)c2ccc(C(F)(F)F)n2CCN3C2CC2)cc1` [Compound 451], more than 5000 nM; for `O=C(c1cccc2cccnc12)N1CCC2(CC1)NCCn1c(C(F)(F)F)ccc12` [Compound 452], 2000 to 5000 nM.
In the case of `CN1CCn2c(C(=O)C(F)(F)F)ccc2C12CCN(C(=O)c1ccc(-c3ccccc3)cn1)CC2` [Compound 453], the IC50 is 2000 to 5000 nM.
The figure for `CC(=O)c1cc2n(c1)CC(C)(C)NC21CCN(C(=O)c2ccc(OC(C)C)c(C)c2)CC1` [Compound 454] is more than 5000 nM; for `COc1ccc(C(=O)N2CCC3(CC2)c2ccc(C(=O)C(F)(F)F)n2CCN3C)cc1OC(C)C` [Compound 455] it is not above 2000 nM; for `CC(=O)c1ccc2n1CCN(C)C21CCN(C(=O)c2ccc(C(C)(C)O)c(C)c2)CC1` [Compound 456] it is 2000 to 5000 nM.
As to `Cc1cc(C(=O)N2CCC3(CC2)c2cccn2CCN3C)ccc1C(C)(C)O` [Compound 457], the half-maximal inhibitory concentration (IC50) is more than 5000 nM.
The figure for `COC(=O)C1CN(C)C2(CCN(C(=O)c3ccc(OC(C)C)c(OC)c3)CC2)c2ccc(C(F)(F)F)n21` (stereo not shown) [Compound 458] is 2000 to 5000 nM.
For `COc1ccc(C(=O)N2CCC3(CC2)c2ccc(C(=O)C(F)(F)F)n2CCN3C)cc1C(F)(F)F` [Compound 459] the value was not above 2000 nM; for `COC(=O)N1CCn2c(C(F)(F)F)ccc2C12CCN(C(=O)c1ccc(OC(C)C)c(C)c1)CC2` [Compound 460], not above 2000 nM; for `CC(C)Oc1ccc(C(=O)N2CCC3(CC2)c2ccc(C(F)(F)C(F)(F)F)n2CCN3C)cc1CO` [Compound 461], not above 2000 nM.
Take `CC(=O)c1ccc2n1CCN(C)C21CCN(C(=O)c2ccc(OCC(C)(C)C)cc2)CC1` [Compound 462]: the 50% inhibitory concentration (IC50) is not above 2000 nM.
On to `C[C@H]1Cn2c(C(=O)C(F)(F)F)ccc2C2(CCN(C(=O)c3ccc(OCC(F)(F)F)cc3)CC2)N1C` [Compound 463], for which the 50% inhibitory concentration (IC50) was not above 2000 nM.
For `CN1CCn2c(ccc2C(F)(F)C(F)(F)F)C12CCN(C(=O)c1ccc(S(=O)(=O)C(C)(C)C)cc1)CC2` [Compound 464] the value was not above 2000 nM.
On to `CCNc1ncccc1C(=O)N1CCC2(CC1)c1ccc(C(F)(F)F)n1CCN2C` [Compound 465], for which the half-maximal inhibitory concentration (IC50) is more than 5000 nM.
As to `Cc1cc(C(=O)N2CCC3(CC2)c2c(Cl)cc(C(F)(F)F)n2CCN3C)ccc1C(C)(C)O` [Compound 466], the half-maximal inhibitory concentration (IC50) is not above 2000 nM.
For `COc1cc(C(=O)N2CCC3(CC2)NC(C)(C)Cn2c(C(=O)C(F)(F)F)ccc23)ccc1COCC(F)(F)F` [Compound 467] the value was not above 2000 nM; for `Cc1nc(C(=O)N2CCC3(CC2)c2ccc(C(=O)C(F)(F)F)n2CCN3C)ccc1OC(C)C` [Compound 468], not above 2000 nM; for `CN1CCn2c(C(F)(F)F)cc(Cl)c2C12CCN(C(=O)c1ccc(C(C)(C)O)cc1)CC2` [Compound 469], 2000 to 5000 nM.
For the compound `COc1cc(C(=O)N2CCC3(CC2)c2ccc(C(C)=O)n2CCN3C)ccc1COCC(F)(F)F` [Compound 470], the IC50 was not above 2000 nM.
Turning to `Cc1cc(C(=O)N2CCC3(CC2)c2ccc(C(=O)C(F)(F)F)n2CCN3C)ccc1C(F)(F)F` [Compound 471], the IC50 is not above 2000 nM.
For `CC(=O)c1ccc2n1CCN(C)C21CCN(C(=O)c2cccc3cccnc23)CC1` [Compound 472], the 50% inhibitory concentration (IC50) is more than 5000 nM.
The figure for `CC(=O)c1ccc2n1CCN(C)C21CCN(C(=O)c2ccc(C(C)(C)C)cc2)CC1` [Compound 473] is more than 5000 nM; for `CNC(=O)N1CCn2c(C(F)(F)F)ccc2C12CCN(C(=O)c1ccc(OC(C)C)cc1F)CC2` [Compound 474] it is 2000 to 5000 nM; for `Cc1cc(C(=O)N2CC[C@]3(c4ccc(C(F)(F)F)n4CCN3C)[C@H](F)C2)ccc1OC(C)C` [Compound 475] it is not above 2000 nM.
For `Cc1cc(C(=O)N2CCC3(CC2)c2ccc(C(=O)C4CC4)n2CCN3C)ccc1O` [Compound 476] the value was not above 2000 nM.
The figure for `CC(C)Oc1ccc(C(=O)N2CCC3(CC2)NCCn2c(C(F)(F)F)ccc23)cc1F` [Compound 477] is not above 2000 nM; for `Cc1cc(C(=O)N2CCC3(CC2)c2ccc(C(=O)C(F)(F)F)n2CCN3C)ccc1-c1ccnn1C` [Compound 478] it is more than 5000 nM.
In the case of `CCCN(CCC)S(=O)(=O)c1ccc(C(=O)N2CCC3(CC2)c2ccc(Cl)n2CCN3C)cc1` [Compound 479], the 50% inhibitory concentration (IC50) was 2000 to 5000 nM.
For `COc1cc(C(=O)N2CCC3(CC2)NC(C)(C)Cn2c(C(=O)C(F)(F)F)ccc23)ccc1COCCC(F)(F)F` [Compound 480] the value was not above 2000 nM.
`CCNc1ccnc2c(C(=O)N3CCC4(CC3)c3ccc(C(F)(F)F)n3CCN4C)cnn12` [Compound 481]: the 50% inhibitory concentration (IC50) is not above 2000 nM.
Take `CCS(=O)(=O)c1ccc(C(=O)N2CCC3(CC2)c2ccc(C(=O)C(C)(C)C)n2CCN3C)cc1C` [Compound 482]: the half-inhibitory concentration (IC50) was 2000 to 5000 nM.
For `COc1cc(C(=O)N2CCC3(CC2)c2c(F)cc(C(F)(F)F)n2CCN3C)ccc1OC(C)(C)C` [Compound 483] the value was not above 2000 nM.
